Experimental data from patent US7488716B2 (priority 2001, dated 2009).
pIC50: −log10 of the molar value. Where a SMILES comes first, the peptide text is derived from it. Where no end group is shown, it is not given here. The star is where a group is joined. PEG 22kD = 22 kDa polyethylene glycol (on cysteine); Palmitoyl = CCCCCCCCCCCCCCCC(=O)*

Columns and labels:
[1] = target: T1, GLP-1 receptor (Rattus norvegicus, UniProt P32301); experiment: Peptide signaling through GLP-1 receptor, cAMP scintillation proximity assay in RINm5F cells; assay type: cell-based; details: for GLP1 Relative Potency: EC50 of native GLP-1 (7-36) divided by EC50 of polypeptide x 100, cAMP in RINm5F cells; for Emax: RIN-m5F, read-out: % GLP1 max
T1 construct: endogenous in cells; host or cells: RINm5F cells
T1 sequence (P32301 22-463): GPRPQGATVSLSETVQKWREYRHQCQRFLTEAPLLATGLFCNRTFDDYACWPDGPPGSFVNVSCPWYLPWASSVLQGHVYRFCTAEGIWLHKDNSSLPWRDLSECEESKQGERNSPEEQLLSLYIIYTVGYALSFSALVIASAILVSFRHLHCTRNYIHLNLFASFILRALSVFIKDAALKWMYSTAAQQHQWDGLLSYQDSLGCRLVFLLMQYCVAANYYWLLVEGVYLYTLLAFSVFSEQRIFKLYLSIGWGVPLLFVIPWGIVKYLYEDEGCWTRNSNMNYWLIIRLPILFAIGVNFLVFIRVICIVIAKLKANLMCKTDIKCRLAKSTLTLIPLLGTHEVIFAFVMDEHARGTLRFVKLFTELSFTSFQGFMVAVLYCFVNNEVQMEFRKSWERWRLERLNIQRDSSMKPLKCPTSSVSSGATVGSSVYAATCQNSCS
Description: The media was removed and the cells were washed twice with PBS. […] For assay of peptides conjugated with fatty acid, the BSA was omitted from the incubation buffer. The incubation buffer was removed, and the cells were lysed in the lysis reagent provided with the cAMP Scintillation Proximity Assay (SPA) direct screening assay system (Amersham Pharmacia Biotech Inc, Piscataway, N.J.). The amount of cAMP (in pmol) present in the lysates was determined following instructions provided with this kit.
The amount of cAMP (in pmol) produced at each concentration of peptide was plotted and analyzed by nonlinear regression using Prizm software to determine the EC50 for each peptide.

[2] = Intraperitoneal glucose tolerance testing (IPGTT) in rats or mice; assay type: in vivo; details: ipGTT in mice 3 hours post dosing with 100 μg/kg peptide
Description: Blood glucose levels during intraperitoneal glucose tolerance testing in rats or mice by some polypeptides of the invention were measured as follows. The in vivo activity of the polypeptides of the invention when administered subcutaneously was examined in rats or mice. Rats or mice fasted overnight were given a subcutaneous injection of control or peptide (100 μg/kg). Basal blood glucose was measured prior to administration of peptides or three or 17 hours after administration of derivatized peptides, and the rats or mice were given 2 g/kg of glucose intraperitoneally. Blood glucose was measured again after 15, 30 and 60 minutes in rats or 30 and 60 minutes in mice.

[3] = target: T1, GLP-1 receptor; experiment: Competitive binding of peptide to the GLP-1 receptor in RINm5F cell plasma membranes (125I GLP-1); details: read-out: GLP1 RIN IC50
Description: Flasks of RINm5F cells were washed with PBS, scraped in 20 mM Hepes-1 mM EDTA-250 mM sucrose buffer containing protease inhibitors (HES) and homogenized in a dounce homogenizer followed by repeated resuspension through a 23 gauge needle. Unbroken cells and nuclei were removed by centrifugation at 500×g for 5 minutes. The pellet was resuspended in HES buffer using a 23 gauge needle and the centrifugation was repeated. The supernatants from the two spins were combined and centrifuged at 40,000×g for 20 min. The resulting plasma membrane pellet was resuspended in HES buffer using a 23 gauge needle followed by a 25 gauge needle. Membranes were stored at −80° C. until use.
(§1) Competitive binding of some polypeptides of the invention to RINm5F cell plasma membranes was measured as follows. Ninety-six-well GF/C filtration plates (Millipore, Bedford, Mass.) were blocked with 0.3% PEI for at least one hour and washed twice with binding buffer consisting of 20 mM Tris, 2 mM EDTA, pH 7.5, 1 mg/ml BSA, and 1 mg/ml bacitracin. […] The plates were dried, scintillant was added to each well, and cpm per well determined using a Wallac Microbeta counter.

[4] = target: T2, glucagon receptor (Rattus norvegicus, UniProt P30082); experiment: Competitive binding of peptide to the glucagon receptor in rat liver plasma membranes (125I glucagon)
T2 construct: glucagon receptor present in the plasma membranes isolated from rat liver; from tissue; host or cells: rat liver plasma membranes
Description: The wet weight of the livers was determined and the tissue minced in 5 volumes of ice cold TES buffer and a slurry prepared using a polytron. All buffers and spins were kept at 4° C. The slurry was further homogenized using three strokes of a handheld dounce homogenizer. The homogenate was passed through several layers of cheesecloth and spun at 25,000×g for 10 minutes. Pellets were homogenized in 22.1 ml TES buffer using 10 strokes of a handheld dounce homogenizer. Twenty-seven point nine milliliters of 2.4 M sucrose in TE was added and mixed well. The homogenate was distributed among several tubes, and each tube was overlaid with 7 ml of TES buffer. The tubes were spun at 120,000×g for 60 minutes. The plasma membranes were removed from the interface that formed during the spin, diluted in TES and concentrated using a 15 minute spin at 200,000×g. The resulting pellet was again homogenized in 9.8 ml TES buffer, combined with 10.3 ml 2.4M sucrose, overlaid with 7 ml TES, and centrifuged at 180,000×g for 30 min. […] The final pellet was resuspended in TES. Plasma membranes were stored at −80° C. until ready for use.
as §1, with “rat liver” for “RINm5F cell”, “0.1%” for “0.3%”

T2 sequence (P30082 27-485): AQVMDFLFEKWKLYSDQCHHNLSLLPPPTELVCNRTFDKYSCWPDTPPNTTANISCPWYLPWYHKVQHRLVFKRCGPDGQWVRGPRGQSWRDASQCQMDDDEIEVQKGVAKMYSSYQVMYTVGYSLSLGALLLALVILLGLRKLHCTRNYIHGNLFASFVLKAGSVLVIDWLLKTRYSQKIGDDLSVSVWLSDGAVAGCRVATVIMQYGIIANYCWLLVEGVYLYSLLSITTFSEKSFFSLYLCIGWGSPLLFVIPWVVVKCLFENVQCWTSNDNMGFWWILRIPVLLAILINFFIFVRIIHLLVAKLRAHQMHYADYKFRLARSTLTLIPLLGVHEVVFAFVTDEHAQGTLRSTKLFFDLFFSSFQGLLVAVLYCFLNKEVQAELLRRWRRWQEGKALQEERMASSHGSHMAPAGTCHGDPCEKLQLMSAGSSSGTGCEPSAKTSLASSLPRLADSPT

CCCCCCCCCCCCCCCC(=O)NCCCC[C@H](NC(=O)[C@H](C)NC(=O)[C@H](CCCNC(=N)N)NC(=O)[C@H](CCCNC(=N)N)NC(=O)[C@H](C)NC(=O)[C@H](CC(=O)O)NC(=O)[C@H](CC(C)C)NC(=O)[C@H](Cc1ccc(O)cc1)NC(=O)[C@H](CCCNC(=N)N)NC(=O)[C@H](C)NC(=O)[C@H](Cc1ccc(O)cc1)NC(=O)[C@H](CC(=O)O)NC(=O)[C@H](CO)NC(=O)[C@@H](NC(=O)[C@H](Cc1ccccc1)NC(=O)[C@@H](NC(=O)CNC(=O)[C@H](CCC(N)=O)NC(=O)[C@H](CO)NC(=O)[C@@H](N)Cc1c[nH]cn1)[C@@H](C)O)[C@@H](C)O)C(=O)N[C@@H](CCC(=O)O)C(=O)N[C@@H](Cc1ccccc1)C(=O)N[C@H](C(=O)N[C@@H](CCCCN)C(=O)N[C@@H](Cc1c[nH]c2ccccc12)C(=O)N[C@@H](CC(C)C)C(=O)N[C@H](C(=O)N[C@@H](CCCNC(=N)N)C(=O)NCC(=O)N[C@@H](CCCNC(=N)N)C(=O)NCC(=O)O)C(C)C)[C@@H](C)CC [G183] (H-HSQGTFTSDYARYLDARRAK(Palmitoyl)EFIKWLVRGRG-OH; N-terminus and C-terminus assumed)
GLP1 Relative Potency [1]: 0.6%
Emax [1]: 90.5%
In vivo Decrease IpGTT AUC [2]: 27%

HSQGTFTSDYAKYLDARRAKEFIAWLVKGRG [G51]
pIC50 [3]: 8.09
pIC50 [4]: 6.81
GLP1 Relative Potency [1]: 58.1%
Emax [1]: 91.2%

HSQGTFTSDYARYLDARRAKEFIAWLVKGR-NH2 [G55]
pIC50 [3]: 8.01
pIC50 [4]: 6.86
GLP1 Relative Potency [1]: 18.6%
Emax [1]: 116%

HSQGTFTSDYAKYLDARRAKEFIAWLVKCRG [G75]
pIC50 [3]: 8.11
pIC50 [4]: 7.27
GLP1 Relative Potency [1]: 6.6%
Emax [1]: 86.1%

HSQGTFTSDYARYLDAAKAKEFIAWLVKGRG [G61]
pIC50 [3]: 7.97
pIC50 [4]: 6.63
GLP1 Relative Potency [1]: 12.1%
Emax [1]: 96%

HSQGTFTSDYAKYLDARRACEFIAWLVKGRG [G71]
pIC50 [3]: 8.24
pIC50 [4]: 7.59
GLP1 Relative Potency [1]: 4.3%
Emax [1]: 93.3%

HSQGTFTSDYAKYLDARRAKEFIAWLVKGRC [G77]
pIC50 [3]: 8.05
pIC50 [4]: 7.21
GLP1 Relative Potency [1]: 9.5%
Emax [1]: 92.1%

HSQGTFTSDYAKYLDARRAKEFIAWLVCGRG [G74]
pIC50 [3]: 8.36
pIC50 [4]: 7.66
GLP1 Relative Potency [1]: 8.4%
Emax [1]: 88.7%

HSQGTFTSDYARYLDAKKAKEFIAWLVKGRG [G59]
pIC50 [3]: 8.68
pIC50 [4]: 7.01
GLP1 Relative Potency [1]: 22.7%
Emax [1]: 102%

HSQGTFTSDYAAYLDARRAKEFIAWLVKGR-NH2 [G56]
pIC50 [3]: 8.18
pIC50 [4]: 6.90
GLP1 Relative Potency [1]: 37.2%
Emax [1]: 115%

HSQGTFTSDYARYLDARRAREFIKWLVRGRC(22kD) (HSQGTFTSDYARYLDARRAREFIKWLVRGRC(PEG 22kD); listed as Homo sapiens) [G2185, 22kD PEG linked to the cysteine residue]
GLP1 Relative Potency [1]: 6.2%
% GLP1 max ([1]; maximal cAMP activity relative to native GLP-1 (7-36), RINm5F cells): 112.7%
In vivo Decrease IpGTT AUC [2]: 44%

HSQGTFTSDYAKYLDAARAKEFIAWLVKGR-NH2 [G57]
pIC50 [3]: 7.83
pIC50 [4]: 6.75
GLP1 Relative Potency [1]: 18.3%
Emax [1]: 132%
